Results reported in PubChem BioAssay AID212 (DTP/NCI, 2004).
Several values for one entry are separate records, joined by “and”; a condition that tells them apart may be missing. Equal entries are not always repeated. Inconclusive results are not listed.

Tested on: BDF1 mice, colon carcinoma 38 sc, T/C %
Assay: NCI In Vivo Anticancer Drug Screen. Data for tumor model Colon Carcinoma 38 (subcutaneous) in B6D2F1 (BDF1) mice
Details: endpoint: median tumor weight (est.), higher = larger tumour
Description: The antitumor activity of compounds was measured in mice bearing transplantable tumors. Survival or tumor size were measured and the results are expressed as the measurement made in the treated group (T) divided by the measurement made in the vehicle treated control group (C). The tumor model used in this assay is Colon Carcinoma 38 (subcutaneous) in B6D2F1 (BDF1) mice

[1] = dose: 12.0 mg/kg/injection, schedule: Q07DX002 (ip), vehicle: saline with Tween-80

[N-]=[N+]=CC(=O)CCC(N)C(=O)O (centres undefined)
T/C (dose: 0.78 mg/kg/injection, schedule: Q07DX003 (ip), vehicle: saline): 57 % of control | T/C (dose: 1.56 mg/kg/injection, schedule: Q07DX003 (ip), vehicle: saline): 48 % of control | T/C (dose: 3.13 mg/kg/injection, schedule: Q07DX003 (ip), vehicle: saline): 73 % of control | T/C (dose: 50.0 mg/kg/injection, schedule: Q07DX003 (ip), vehicle: saline): 10 % of control

N=C(N)SCc1c2ccccc2c(CSC(=N)N)c2ccccc12
T/C (dose: 6.25 mg/kg/injection, schedule: Q07DX002 (ip), vehicle: suspension in saline): 63 % of control | T/C (dose: 12.5 mg/kg/injection, schedule: Q07DX002 (ip), vehicle: saline): 93 % of control and 100 % of control | T/C (dose: 12.5 mg/kg/injection, schedule: Q07DX002 (ip), vehicle: suspension in saline): 92 % of control | T/C (dose: 25.0 mg/kg/injection, schedule: Q07DX002 (ip), vehicle: suspension in saline): 83 % of control | T/C (dose: 50.0 mg/kg/injection, schedule: Q07DX002 (ip), vehicle: saline): 71 % of control and 89 % of control | T/C (dose: 50.0 mg/kg/injection, schedule: Q07DX002 (ip), vehicle: suspension in saline): 64 % of control | T/C (dose: 100.0 mg/kg/injection, schedule: Q07DX002 (ip), vehicle: suspension in saline): 115 % of control | T/C (dose: 200.0 mg/kg/injection, schedule: Q07DX002 (ip), vehicle: suspension in saline): 97 % of control

CCC1=C[C@H]2CN(CCc3c([nH]c4ccccc34)[C@@](C(=O)OC)(c3cc4c(cc3OC)N(C)[C@H]3[C@@](O)(C(=O)OC)[C@H](OC(C)=O)[C@]5(CC)C=CCN6CC[C@]43[C@@H]65)C2)C1
T/C (dose: 4.0 mg/kg/injection, schedule: Q07DX002 (ip), vehicle: water): 75 % of control and 82 % of control

O=C1NC(O)CCN1C1OC(CO)C(O)C1O (centres undefined)
T/C (dose: 100.0 mg/kg/injection, schedule: Q07DX002 (ip), vehicle: saline): 153 % of control | T/C (dose: 100.0 mg/kg/injection, schedule: Q07DX003 (ip), vehicle: saline): 94 % of control | T/C (dose: 200.0 mg/kg/injection, schedule: Q07DX002 (ip), vehicle: saline): 192 % of control | T/C (dose: 200.0 mg/kg/injection, schedule: Q07DX003 (ip), vehicle: saline): 91 % of control | T/C (dose: 400.0 mg/kg/injection, schedule: Q07DX002 (ip), vehicle: saline): 89 % of control | T/C (dose: 400.0 mg/kg/injection, schedule: Q07DX003 (ip), vehicle: saline): 157 % of control | T/C (dose: 800.0 mg/kg/injection, schedule: Q07DX002 (ip), vehicle: saline): 113 % of control

F[B-](F)(F)F
T/C (dose: 12.5 mg/kg/injection, schedule: Q07DX002 (ip), vehicle: gum acacia): 105 % of control | T/C (dose: 25.0 mg/kg/injection, schedule: Q07DX002 (ip), vehicle: gum acacia): 90 % of control | T/C (dose: 50.0 mg/kg/injection, schedule: Q07DX002 (ip), vehicle: gum acacia): 95 % of control | T/C (dose: 200.0 mg/kg/injection, schedule: Q07DX002 (ip), vehicle: gum acacia): 64 % of control | T/C (dose: 400.0 mg/kg/injection, schedule: Q07DX002 (ip), vehicle: gum acacia): 77 % of control

Cc1ccc(C(=O)[O][Hg][CH2]C2COC([CH2][Hg][O]C(=O)c3ccc(C)cc3)CO2)cc1 (centres undefined)
T/C (dose: 25.0 mg/kg/injection, schedule: Q07DX002 (ip), vehicle: Klucel (hydroxypropylcellulose) (HPC)): 186 % of control | T/C (dose: 50.0 mg/kg/injection, schedule: Q07DX002 (ip), vehicle: Klucel (hydroxypropylcellulose) (HPC)): 177 % of control and 193 % of control | T/C (dose: 100.0 mg/kg/injection, schedule: Q07DX002 (ip), vehicle: Klucel (hydroxypropylcellulose) (HPC)): 154 % of control and 209 % of control

CN(Cc1cnc2nc(N)nc(N)c2n1)c1c(Cl)cc(C(=O)NC(CCC(=O)O)C(=O)O)cc1Cl (centres undefined)
T/C (dose: 3.12 mg/kg/injection, schedule: Q07DX003 (ip), vehicle: Klucel (hydroxypropylcellulose) (HPC)): 155 % of control | T/C (dose: 6.25 mg/kg/injection, schedule: Q07DX003 (ip), vehicle: Klucel (hydroxypropylcellulose) (HPC)): 117 % of control | T/C (dose: 12.5 mg/kg/injection, schedule: Q07DX003 (ip), vehicle: suspension in saline): 87 % of control | T/C (dose: 25.0 mg/kg/injection, schedule: Q07DX003 (ip), vehicle: suspension in saline): 124 % of control | T/C (dose: 50.0 mg/kg/injection, schedule: Q07DX003 (ip), vehicle: Klucel (hydroxypropylcellulose) (HPC)): 72 % of control | T/C (dose: 50.0 mg/kg/injection, schedule: Q07DX003 (ip), vehicle: suspension in saline): 77 % of control | T/C (dose: 100.0 mg/kg/injection, schedule: Q07DX003 (ip), vehicle: Klucel (hydroxypropylcellulose) (HPC)): 90 % of control | T/C (dose: 100.0 mg/kg/injection, schedule: Q07DX003 (ip), vehicle: suspension in saline): 86 % of control | T/C (dose: 200.0 mg/kg/injection, schedule: Q07DX003 (ip), vehicle: Klucel (hydroxypropylcellulose) (HPC)): 102 % of control | T/C (dose: 200.0 mg/kg/injection, schedule: Q07DX003 (ip), vehicle: suspension in saline): 81 % of control | T/C (dose: 400.0 mg/kg/injection, schedule: Q07DX003 (ip), vehicle: Klucel (hydroxypropylcellulose) (HPC)): 62 % of control | T/C (dose: 400.0 mg/kg/injection, schedule: Q07DX003 (ip), vehicle: suspension in saline): 101 % of control

CC(Oc1ccccc1-c1ccccc1)C(=O)N(C)C (centres undefined)
T/C (dose: 100.0 mg/kg/injection, schedule: Q07DX002 (ip), vehicle: saline with Tween-80): 79 % of control and 82 % of control | T/C (dose: 200.0 mg/kg/injection, schedule: Q07DX002 (ip), vehicle: saline with Tween-80): 74 % of control and 78 % of control | T/C (dose: 400.0 mg/kg/injection, schedule: Q07DX002 (ip), vehicle: saline with Tween-80): 56 % of control and 75 % of control | T/C (dose: 800.0 mg/kg/injection, schedule: Q07DX002 (ip), vehicle: saline with Tween-80): 49 % of control and 68 % of control

O=S(=O)(O)O.[NH-]C1CCCCC1[NH-].[Pt+2] (centres undefined)
T/C (dose: 0.31 mg/kg/injection, schedule: Q07DX002 (ip), vehicle: dextrose): 56 % of control | T/C (dose: 0.62 mg/kg/injection, schedule: Q07DX002 (ip), vehicle: dextrose): 82 % of control | T/C (dose: 0.63 mg/kg/injection, schedule: Q07DX002 (ip), vehicle: dextrose): 80 % of control | T/C (dose: 0.63 mg/kg/injection, schedule: Q07DX003 (ip), vehicle: dextrose): 51 % of control | T/C (dose: 1.25 mg/kg/injection, schedule: Q07DX002 (ip), vehicle: dextrose): 41 % of control | T/C (dose: 1.25 mg/kg/injection, schedule: Q07DX003 (ip), vehicle: dextrose): 76 % of control | T/C (dose: 2.5 mg/kg/injection, schedule: Q07DX002 (ip), vehicle: dextrose): 19 % of control and 36 % of control | T/C (dose: 5.0 mg/kg/injection, schedule: Q07DX002 (ip), vehicle: dextrose): 21 % of control | T/C (dose: 5.0 mg/kg/injection, schedule: Q07DX003 (ip), vehicle: dextrose): 29 % of control | T/C (dose: 10.0 mg/kg/injection, schedule: Q07DX002 (ip), vehicle: dextrose): 9 % of control

COC1C(C)OC(OC2CC(C)(O)Cc3cc4c(c(O)c32)C(=O)c2c(O)cc3c(c2C4=O)OC2OC3(C)C(O)C(N(C)C)C2O)C(OC)C1(C)OC (centres undefined)
T/C (dose: 0.62 mg/kg/injection, schedule: Q07DX002 (ip), vehicle: other): 53 % of control | T/C (dose: 1.25 mg/kg/injection, schedule: Q07DX002 (ip), vehicle: other): 81 % of control | T/C (dose: 5.0 mg/kg/injection, schedule: Q07DX002 (ip), vehicle: other): 83 % of control | T/C (dose: 10.0 mg/kg/injection, schedule: Q07DX002 (ip), vehicle: other): 89 % of control

CCCCCCCCCCCCN1C(C)=CS/C1=C\C=C\c1scc(C)[n+]1CCCCCCCCCCCC
T/C (dose: 0.78 mg/kg/injection, schedule: Q07DX002 (ip), vehicle: saline with Tween-80): 124 % of control | T/C (dose: 1.56 mg/kg/injection, schedule: Q07DX002 (ip), vehicle: saline with Tween-80): 98 % of control | T/C (dose: 3.12 mg/kg/injection, schedule: Q07DX002 (ip), vehicle: saline with Tween-80): 79 % of control | T/C (dose: 6.25 mg/kg/injection, schedule: Q07DX002 (ip), vehicle: saline with Tween-80): 88 % of control | T/C [1]: 101 % of control | T/C (dose: 12.5 mg/kg/injection, schedule: Q07DX002 (ip), vehicle: saline with Tween-80): 120 % of control

COP12(OCCO1)SC(C(F)(F)F)=C(C(F)(F)F)S2
T/C (dose: 0.75 mg/kg/injection, schedule: Q07DX002 (ip), vehicle: saline with Tween-80): 81 % of control | T/C (dose: 1.5 mg/kg/injection, schedule: Q07DX002 (ip), vehicle: saline with Tween-80): 92 % of control | T/C (dose: 3.0 mg/kg/injection, schedule: Q07DX002 (ip), vehicle: saline with Tween-80): 84 % of control | T/C (dose: 6.0 mg/kg/injection, schedule: Q07DX002 (ip), vehicle: saline with Tween-80): 83 % of control | T/C [1]: 75 % of control
